For test [1], the target named is T1, human bradykinin 1 receptor (B1R) (Homo sapiens, UniProt P46663).
T1 construct: expressed in transfected cells; host or cells: CHO K1 cells
T1 sequence (P46663 1-353): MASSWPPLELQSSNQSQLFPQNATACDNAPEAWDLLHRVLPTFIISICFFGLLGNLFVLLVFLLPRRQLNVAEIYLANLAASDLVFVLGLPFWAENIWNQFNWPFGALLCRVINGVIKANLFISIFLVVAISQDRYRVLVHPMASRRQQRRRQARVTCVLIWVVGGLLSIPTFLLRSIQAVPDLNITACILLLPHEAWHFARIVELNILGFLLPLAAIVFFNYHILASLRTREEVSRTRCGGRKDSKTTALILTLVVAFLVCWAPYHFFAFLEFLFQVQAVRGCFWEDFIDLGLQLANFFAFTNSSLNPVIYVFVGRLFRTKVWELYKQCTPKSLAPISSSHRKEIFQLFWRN
In words: Functional investigation on the human bradykinin 1 receptor (B1R), Ca2+ FLIPR assay in CHO K1 hB1R cells. Conditions: test substance 10 μM; for inhibition at 10 µM: CHO-K1, B1R antagonism human, read-out: B1R Ant. h [10 μM] % Inhibition; for B1R Ant. h [10 μM] % Inhibition: B1R antagonism human. The class given is cell-based. From the text:
Functional Investigation on the Human Bradykinin 1 Receptor (B1R)
The agonistic or antagonistic action of substances can be determined on the bradykinin 1 receptor (B1R) of the human species and rats with the following assay. In accordance with this assay, the Ca^2+ inflow through the channel is quantified with the aid of a Ca^2=-sensitive dyestuff (type Fluo-4, Molecular Probes Europe BV, Leiden, Holland) in a fluorescent imaging plate reader (FLIPR, Molecular Devices, Sunnyvale, USA).
Chinese hamster ovary cells (CHO K1 cells) transfected stably with the human B1R gene (hB1R cells) or the B1R gene of the rat (rB1R cells) are used. For functional studies, these cells are plated out on black 96-well plates with a clear base (BD Biosciences, Heidelberg, Germany or Greiner, Frickenhausen, Germany) in a density of 20,000-35,000 cells/well. The cells are left overnight at 37° C. and 5% CO2 in culture medium (hB1R cells: Nutrient Mixture Ham's F12, Gibco Invitrogen GmbH, Karlsruhe, Germany or DMEM, Sigma-Aldrich, Taufkirchen, Germany; rB1R cells: D-MEM/F12, Gibco Invitrogen GmbH, Karlsruhe, Germany) with 10 vol. % of FBS (foetal bovine serum, Gibco Invitrogen GmbH, Karlsruhe, Germany or PAN Biotech GmbH, Aidenbach, Germany).
On the following day, the cells are loaded for 60 min at 37° C. with 2.13 μM Fluo-4 (Molecular Probes Europe BV, Leiden, The Netherlands) in HBSS buffer (Hank's buffered saline solution, Gibco Invitrogen GmbH, Karlsruhe, Germany) with 2.5 mM probenecid (Sigma-Aldrich, Taufkirchen, Germany) and 10 mM HEPES (Sigma-Aldrich, Taufkirchen, Germany). The plates are then washed 2× with HBSS buffer, and HBSS buffer which additionally contains 0.1% of BSA (bovine serum albumin; Sigma-Aldrich, Taufkirchen, Germany), 5.6 mM glucose and 0.05% of gelatine (Merck KGaA, Darmstadt, Germany) is added. After a further incubation of 20 minutes at room temperature, the plates are inserted into the FLIPR for the Ca^2+ measurement.
Alternatively, the plates are washed with buffer A (15 mM HEPES, 80 mM NaCl, 5 mM KCl, 1.2 mM CaCl2, 0.7 mM MgSO4, 2 g/l glucose, 2.5 mM probenecid), buffer A is added and the plates are loaded with 2.5 μM Fluo-4 and 0.025% of Pluronic F127 (Sigma-Aldrich, Taufkirchen, Germany). Thereafter, the cells are washed 2× with buffer A and incubated for 30 minutes with buffer A, which additionally contains 0.05% of BSA and 0.05% of gelatine, at room temperature and thereafter inserted into the FLIPR for the Ca^2+ measurement.
The Ca^2+-dependent fluorescence is measured before and after addition of substances (λex=488 nm, λem=540 nm). Quantification is by measurement of the highest fluorescence intensity (FC, fluorescence counts) over time.
The FLIPR protocol consists of 2 additions of substance. Test substances (10 μM) are first pipetted on to the cells and the Ca^2+ inflow is compared with the control (hB1R: Lys-Des-Arg^9-bradykinin >=50 nM; rB1R: Des-Arg^9-bradykinin 10 μM). This gives the information in % activation based on the Ca^2+ signal after addition of Lys-Des-Arg^9-bradykinin (>=50 nM) or Des-Arg^9-bradykinin (10 μM).
After incubation for 10-20 minutes, Lys-Des-Arg^9-bradykinin (hB1R) or Des-Arg^9-bradykinin (rB1R) is applied in the concentration of the EC80 and the inflow of Ca^2+ is likewise determined.
Antagonists lead to a suppression of the Ca^2+ inflow. % inhibition compared with the maximum achievable inhibition is calculated.
To determine the IC50 value, the substances are added in various concentrations. Duplicate or triplicate determinations (n=2 or n=3) are carried out, and these are repeated in at least one further independent experiment (N>=2).
Preferably, the compounds have a B1R antagonistic action on the human receptor and/or on the rat receptor. The following data are given by way of example in the following table: (In this, “B1R Ant. h” represents “B1R antagonism human” and “B1R Ant. r” represents “B1R antagonism rat”)

The target in the next test is T2, human μ opiate receptor (Homo sapiens, UniProt P35372).
T2 construct: purchased PerkinElmer Life Sciences, Zaventem, Belgium RB-HOM; host or cells: CHO-K1 cells (membrane preparation)
Briefly: Affinity for the human μ opiate receptor ([3H]-naloxone displacement, CHO-K1 receptor membrane preparation, SPA). The class given is binding. The settings on record: test concentration of 1 μM. How it is done:
Binding data of the compounds on the μ opioid receptor and data on the inhibition of reuptake of serotonin (5-HT) are given in Table 1. The data for the μ receptor were measured at a test concentration of 1 μM, and those for the serotonin reuptake at 10 μM. The values are stated in % inhibition.
Investigation of the Activity of the Compounds of the Invention Method for Determining the Affinity for the Human μ Opiate Receptor
The receptor affinity for the human p opiate receptor is determined in a homogeneous set-up in microtitre plates. For this, dilution series of the substances to be tested are incubated with a receptor membrane preparation (15-40 μg of protein/250 μl of incubation batch) of CHO-K1 cells which express the human p opiate receptor (RB-HOM receptor membrane preparation from PerkinElmer Life Sciences, Zaventem, Belgium) in the presence of 1 nmol/l of the radioactive ligand [^3H]-naloxone (NET719, PerkinElmer Life Sciences, Zaventem, Belgium) and 1 mg of WGA-SPA-Beads (wheat germ agglutinin SPA beads from Amersham/Pharmacia, Freiburg, Germany) in a total volume of 250 μl for 90 minutes at room temperature. 50 mmol/l of Tris-HCl supplemented with 0.06% of bovine serum albumin is used as the incubation buffer. 100 μmol/l of naloxone are additionally added for determination of the non-specific binding. After the end of the ninety-minute incubation time, the microtitre plates are centrifuged for 20 minutes at 1,000 g and the radioactivity is measured in a β-counter (Microbeta-Trilux, PerkinElmer Wallac, Freiburg, Germany). The percentage displacement of the radioactive ligand from its binding to the human p opiate receptor is determined at a concentration of the test substances of 1 μmol/l and stated as the percentage inhibition of the specific binding. Starting from the percentage displacement by various concentrations of the test substances, IC50 inhibitory concentrations which cause a 50 percent displacement of the radioactive ligand are calculated. By conversion by means of the Cheng-Prusoff relationship, Ki values for the test substances are obtained.

Read-outs that look alike come from different tables or passages of the source.

T2 sequence (P35372 whole entry): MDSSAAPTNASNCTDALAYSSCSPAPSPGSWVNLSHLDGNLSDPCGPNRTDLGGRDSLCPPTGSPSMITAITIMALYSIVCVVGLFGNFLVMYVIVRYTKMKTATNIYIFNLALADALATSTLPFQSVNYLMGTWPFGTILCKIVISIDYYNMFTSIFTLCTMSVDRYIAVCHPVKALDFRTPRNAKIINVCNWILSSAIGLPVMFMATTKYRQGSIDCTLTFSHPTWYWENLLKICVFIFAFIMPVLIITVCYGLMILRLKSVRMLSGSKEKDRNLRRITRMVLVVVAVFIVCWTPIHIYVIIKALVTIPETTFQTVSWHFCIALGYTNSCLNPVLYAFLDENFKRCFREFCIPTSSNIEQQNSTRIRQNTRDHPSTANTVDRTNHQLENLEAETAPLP

One may read the inhibition as the drop in the measured response relative to a control, in per cent. Turning to `CN(C)C(CCc1ccccc1)C1CCC(NC(=O)CNC(=O)c2nc(-c3ccc(Cl)cc3Cl)no2)CC1` (stereo not drawn) [Example 795, 3-(2,4-dichloro-phenyl)-[1,2,4]oxadiazole-5-carboxylic acid {[4-(1-dimethylamino-3-phenyl-propyl)-cyclohexylcarbamoyl]-methyl}-amide], in test [1] (Ca2+ FLIPR, CHO K1 hB1R cells), the inhibition at 10 µM came out at 103%.

On to `CC(Oc1ccccc1)C(=O)NC1CCC(C(c2ccc(F)cc2)N(C)C)CC1` (stereo not drawn) [Example 516], for which the “μ (binding on the μ opioid receptor, % inhibition)” value at human μ opiate receptor worked out at 40%.

With `COc1ccc(S(=O)(=O)N(C)CCOCC(=O)NC2CCC(C(c3ccccc3)N(C)C)CC2)cc1` (stereo not drawn) [Example 590], at human μ opiate receptor, the “μ (binding on the μ opioid receptor, % inhibition)” value worked out at 75%. In addition, the “B1R Ant. h [10 μM] % Inhibition” value in test [1] (Ca2+ FLIPR, CHO K1 hB1R cells) is listed as −1%.

Regarding `CN(C)C(c1ccccc1)C1CCC(NC(=O)COCCN(C)S(=O)(=O)c2ccc(OC(F)(F)F)cc2)CC1` (stereo not drawn) [Example 594], the “μ (binding on the μ opioid receptor, % inhibition)” value on human μ opiate receptor came to 94%. In addition, the “B1R Ant. h [10 μM] % Inhibition” value in test [1] (Ca2+ FLIPR, CHO K1 hB1R cells) stood at 20%.

As for `CN(C)C(c1ccccc1)C1CCC(NC(=O)COC2CCN(S(=O)(=O)c3ccccc3)C2)CC1` (stereo not drawn) [Example 595], at human μ opiate receptor, the “μ (binding on the μ opioid receptor, % inhibition)” value was found to be 51%. In addition, in test [1] (Ca2+ FLIPR, CHO K1 hB1R cells), the “B1R Ant. h [10 μM] % Inhibition” value turned out to be 15%.

`CN(C)C(c1ccccc1)C1CCC(NC(=O)COC2CCN(S(=O)(=O)c3ccc(Cl)cc3Cl)C2)CC1` (stereo not drawn) [Example 596]: the “μ (binding on the μ opioid receptor, % inhibition)” value at human μ opiate receptor was found to be 84%. The “B1R Ant. h [10 μM] % Inhibition” value in test [1] (Ca2+ FLIPR, CHO K1 hB1R cells) amounted to 32%.

Take `Cc1ccc(S(=O)(=O)N2CCC(OCC(=O)NC3CCC(C(c4ccccc4)N(C)C)CC3)C2)cc1` (stereo not drawn) [Example 123, N-(4-((dimethylamino)(phenyl)methyl)cyclohexyl)-2-(1-tosylpyrrolidin-3-yloxy)acetamide]: the inhibition at 1 µM on human μ opiate receptor (read-out: μ (binding on the μ opioid receptor, % inhibition)) came to 27%. Moreover, the inhibition at 10 µM in test [1] (Ca2+ FLIPR, CHO K1 hB1R cells) is -6%.

With `CN(C)C(c1ccccc1)C1CCC(NC(=O)COC2CCN(S(=O)(=O)c3ccc(F)cc3)C2)CC1` (stereo not drawn) [Example 591], the “μ (binding on the μ opioid receptor, % inhibition)” value at human μ opiate receptor turned out to be 93%. For the same compound, in test [1] (Ca2+ FLIPR, CHO K1 hB1R cells), the “B1R Ant. h [10 μM] % Inhibition” value is on record as 0%.

In the case of `COc1ccc(S(=O)(=O)N(C)CCOCC(=O)NC2CCC(C(c3ccccc3)N(C)C)CC2)cc1OC` (stereo not drawn) [Example 592], the “μ (binding on the μ opioid receptor, % inhibition)” value on human μ opiate receptor was 83%. In test [1] (Ca2+ FLIPR, CHO K1 hB1R cells), the “B1R Ant. h [10 μM] % Inhibition” value was 1%.

As to `CN(C)C(CCc1ccccc1)C1CCC(NC(=O)CCNC(=O)c2nc(-c3cccs3)no2)CC1` (stereo not drawn) [Example 797, 3-thiophen-2-yl-[1,2,4]oxadiazole-5-carboxylic acid {2-[4-(1-dimethylamino-3-phenyl-propyl)-cyclohexylcarbamoyl]-ethyl}-amide], the inhibition at 10 µM in test [1] (% inhibition compared with the maximum achievable inhibition) was 0%.

For the compound `CN(C)C(c1ccccc1)C1CCC(NC(=O)COCCN(C)S(=O)(=O)c2cccc(C(F)(F)F)c2)CC1` (stereo not drawn) [Example 593], the “μ (binding on the μ opioid receptor, % inhibition)” value on human μ opiate receptor turned out to be 91%. Also, the “B1R Ant. h [10 μM] % Inhibition” value in test [1] (Ca2+ FLIPR, CHO K1 hB1R cells) is listed as 56%.

In the case of `CN(C)C(c1ccccc1)C1CCC(NC(=O)COCCN(C)S(=O)(=O)c2ccccc2)CC1` (stereo not drawn) [Example 588], the “μ (binding on the μ opioid receptor, % inhibition)” value on human μ opiate receptor is 29%. For the same compound, the “B1R Ant. h [10 μM] % Inhibition” value in test [1] (Ca2+ FLIPR, CHO K1 hB1R cells) is 6%.

On to `CN(C)C(c1ccccc1)C1CCC(NC(=O)COCCN(C)S(=O)(=O)c2ccc(Cl)cc2)CC1` (stereo not drawn) [Example 589], for which the “μ (binding on the μ opioid receptor, % inhibition)” value at human μ opiate receptor turned out to be 25%. The “B1R Ant. h [10 μM] % Inhibition” value in test [1] (Ca2+ FLIPR, CHO K1 hB1R cells) came to 28%.

`Cc1ccc(F)cc1-c1noc(C(=O)NCC(=O)NC2CCC(C(CCc3ccccc3)N(C)C)CC2)n1` (stereo not drawn) [Example 796, 3-(5-fluoro-2-methyl-phenyl)-[1,2,4]oxadiazole-5-carboxylic acid {[4-(1-dimethylamino-3-phenyl-propyl)-cyclohexylcarbamoyl]-methyl}-amide]: the inhibition at 10 µM in test [1] (Ca2+ FLIPR, CHO K1 hB1R cells) came to 94%.

As for `COc1ccc(-c2noc(C(=O)NCC(=O)NC3CCC(C(CCc4ccccc4)N(C)C)CC3)n2)cc1OC` (stereo not drawn) [Example 794, 3-(3,4-dimethoxy-phenyl)-[1,2,4]oxadiazole-5-carboxylic acid {[4-(1-dimethylamino-3-phenyl-propyl)-cyclohexylcarbamoyl]-methyl}-amide], the inhibition at 10 µM in test [1] (Ca2+ FLIPR, CHO K1 hB1R cells) turned out to be 1%.

Take `CN(C)C(c1ccccc1)C1CCC(NC(=O)COCCN(C)S(=O)(=O)c2ccc(F)cc2)CC1` (stereo not drawn) [Example 585]: on human μ opiate receptor, the “μ (binding on the μ opioid receptor, % inhibition)” value is on record as 41%. Also, the “B1R Ant. h [10 μM] % Inhibition” value in test [1] (Ca2+ FLIPR, CHO K1 hB1R cells) is on record as −10%.

(Values after patent US8106055B2, “Substituted amide compounds” (Gruenenthal GmbH, priority 2007, dated 2012).)
